pIC50: −log10 of the molar value.
Assays:
[1] = biological target: Cbl-b (Homo sapiens (Human), UniProt Q13191); assay: Cbl-b LCK Ub TR-FRET assay (Cbl-b Lck HTRF); format: biochemical; details: for pIC50: Cbl-b LCK Ub TR-FRET; for fold-selectivity (Cbl-b over C-cbl): ratio C-cbl Lck HTRF IC50 / Cbl-b Lck HTRF IC50
Summary of the method: (§1)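 Signal is read once the detection mix has stood 20 min at ambient temperature. Curves are anchored by DMSO as maximum and by omission of LCK as minimum.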

[2] = biological target: c-Cbl (Homo sapiens (Human), UniProt P22681); assay: C-Cbl LCK Ub TR-FRET assay (C-cbl Lck HTRF); format: biochemical
Sequence of c-Cbl (P22681 47-435): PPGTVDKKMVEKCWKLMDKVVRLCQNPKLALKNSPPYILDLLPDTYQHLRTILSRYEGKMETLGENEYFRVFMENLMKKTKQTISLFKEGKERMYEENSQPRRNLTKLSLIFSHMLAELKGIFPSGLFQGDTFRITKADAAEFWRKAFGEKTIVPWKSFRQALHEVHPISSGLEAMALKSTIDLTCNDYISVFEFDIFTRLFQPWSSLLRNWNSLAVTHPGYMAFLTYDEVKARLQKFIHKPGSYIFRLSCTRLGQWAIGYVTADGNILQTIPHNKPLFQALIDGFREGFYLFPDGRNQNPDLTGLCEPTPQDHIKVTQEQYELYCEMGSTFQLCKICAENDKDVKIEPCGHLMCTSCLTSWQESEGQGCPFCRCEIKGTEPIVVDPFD
Summary of the method: as §1

Sequence of Cbl-b (Q13191 40-426): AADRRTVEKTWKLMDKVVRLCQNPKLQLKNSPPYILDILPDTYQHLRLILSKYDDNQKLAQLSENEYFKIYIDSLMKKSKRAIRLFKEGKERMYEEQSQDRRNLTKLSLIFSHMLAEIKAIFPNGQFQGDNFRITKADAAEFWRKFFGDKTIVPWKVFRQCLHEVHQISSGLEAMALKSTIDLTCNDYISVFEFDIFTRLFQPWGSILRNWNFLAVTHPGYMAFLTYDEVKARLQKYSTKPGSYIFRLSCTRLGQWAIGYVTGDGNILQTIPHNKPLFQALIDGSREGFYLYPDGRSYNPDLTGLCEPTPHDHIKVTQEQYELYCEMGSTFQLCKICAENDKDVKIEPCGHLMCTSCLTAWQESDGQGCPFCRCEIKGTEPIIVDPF

Compound	pIC50 [1]	fold-selectivity (Cbl-b over C-cbl) [1]	pIC50 [2]
CC(C)[C@H]1CN(C)CCN1Cc1cc2c(c(C(F)(F)F)c1)CN(c1cccc(C3(c4nncn4C)CC4(COC4)C3)c1)C2=O [Compound 41, (S)-6-((2-isopropyl-4-methylpiperazin-1-yl)methyl)-2-(3-(6-(4-methyl-4H-1,2,4-triazol-3-yl)-2-oxaspiro[3.3]heptan-6-yl)phenyl)-4-(trifluoromethyl)isoindolin-1-one]	7.68	(2.8x)	7.23
Cn1cnnc1[C@H](OC1CCC1)c1cccc(N2Cc3c(cc(CNC4(C)CCC4)cc3C(F)(F)F)C2=O)c1 [Compound 47, (R)-2-(3-(cyclobutoxy(4-methyl-4H-1,2,4-triazol-3-yl)methyl)phenyl)-6-(((1-methylcyclobutyl)amino)methyl)-4-(trifluoromethyl)isoindolin-1-one]	5.92	(1.9x)	5.64
CCc1cc(C2(c3nncn3C)CC(F)(F)C2)cc(N2Cc3c(cc(CNC4(C)CCC4)cc3C(F)(F)F)C2=O)n1 [Compound 59, 2-(4-(3,3-difluoro-1-(4-methyl-4H-1,2,4-triazol-3-yl)cyclobutyl)-6-ethylpyridin-2-yl)-6-(((1-methylcyclobutyl)amino)methyl)-4-(trifluoromethyl)isoindolin-1-one]	7.74	(0.96x)	7.77
CCOc1cc([C@]2(c3nncn3C)C[C@@H](OC)C2)cc(N2Cc3c(cc(CNC4(C)CCC4)cc3C(F)(F)F)C2=O)n1 [Compound 76, 2-(6-ethoxy-4-((1S,3S)-3-methoxy-1-(4-methyl-4H-1,2,4-triazol-3-yl)cyclobutyl)pyridin-2-yl)-6-(((1-methylcyclobutyl)amino)methyl)-4-(trifluoromethyl)isoindolin-1-one]	8.19	(1.0x)	8.19
CCOc1cc([C@]2(c3nncn3C)C[C@H](OC)C2)cc(N2Cc3c(cc(CNC4(C)CCC4)cc3C(F)(F)F)C2=O)n1 [Compound 77, 2-(6-ethoxy-4-((1R,3R)-3-methoxy-1-(4-methyl-4H-1,2,4-triazol-3-yl)cyclobutyl)pyridin-2-yl)-6-(((1-methylcyclobutyl)amino)methyl)-4-(trifluoromethyl)isoindolin-1-one]	8.09	(1.0x)	8.09
CO[C@H]1C[C@@](c2cc(OC3CCCC3)nc(N3Cc4c(cc(CNC5(C)CCC5)cc4C(F)(F)F)C3=O)c2)(c2nncn2C)C1 [Compound 78, 2-(6-(cyclopentyloxy)-4-((1S,3S)-3-methoxy-1-(4-methyl-4H-1,2,4-triazol-3-yl)cyclobutyl)pyriidn-2-yl)-6-(((1-methylcyclobutyl)amino)methyl)-4-(trifluoromethyl)isoindolin-1-one]	7.85	(5.0x)	7.15
CO[C@H]1C[C@](c2cc(OC3CCCC3)nc(N3Cc4c(cc(CNC5(C)CCC5)cc4C(F)(F)F)C3=O)c2)(c2nncn2C)C1 [Compound 79, 2-(6-(cyclopentyloxy)-4-((1R,3R)-3-methoxy-1-(4-methyl-4H-1,2,4-triazol-3-yl)cyclobutyl)pyridin-2-yl)-6-(((1-methylcyclobutyl)amino)methyl)-4-(trifluoromethyl)isoindolin-1-one]	7.49	(7.4x)	6.63

More lines, now with the values ahead:

pIC50 [1]	fold-selectivity (Cbl-b over C-cbl) [1]	pIC50 [2]	Compound
7.96	(1.1x)	7.92	Cn1cnnc1[C@]1(c2cccc(N3Cc4c(cc(CNC5(C)CCC5)cc4C(F)(F)F)C3=O)c2)C[C@@H](F)C1 [Compound 36, 2-(3-((1r,3r)-3-fluoro-1-(4-methyl-4H-1,2,4-triazol-3-yl)cyclobutyl)phenyl)-6-(((1-methylcyclobutyl)amino)methyl)-4-(trifluoromethyl)isoindolin-1-one]
8.14	(2.4x)	7.77	Cn1cnnc1C1(c2cccc(N3Cc4c(cc(CNC5(C)CCC5)cc4C(F)(F)F)C3=O)c2)CC(C)(C)C1 [Compound 39, 2-(3-(3,3-dimethyl-1-(4-methyl-4H-1,2,4-triazol-3-yl)cyclobutyl)phenyl)-6-(((1-methylcyclobutyl)amino)methyl)-4-(trifluoromethyl)-isoindolin-1-one]
8.05	(3.2x)	7.55	Cn1cnnc1C1(c2cccc(N3Cc4c(cc(CNC5(C)CCC5)cc4C(F)(F)F)C3=O)c2)CC2(CCC2)C1 [Compound 40]
6.96	(0.73x)	7.10	Cc1cc(C2(c3nncn3C)CC(F)(F)C2)cc(N2Cc3c(cc(CNC4(C)CCC4)cc3C(F)(F)F)C2=O)n1 [Compound 60, 2-(4-(3,3-difluoro-1-(4-methyl-4H-1,2,4-triazol-3-yl)cyclobutyl)-6-methylpyridin-2-yl)-6-(((1-methylcyclobutyl)amino)methyl)-4-(trifluoromethyl)isoindolin-1-one]
7.89	2.2x	7.54	Cn1cnnc1C1(c2cccc(N3Cc4c(cc(CNC5(C)CCC5)cc4C(F)(F)F)C3=O)c2)CC2(CC(=O)C2)C1 [Compound 92, 2-(3-(2-(4-methyl-4H-1,2,4-triazol-3-yl)-6-oxospiro[3.3]heptan-2-yl)phenyl)-6-(((1-methylcyclobutyl)amino)methyl)-4-(trifluoromethyl)isoindolin-1-one]
6.92	7.3x	6.05	Cn1cnnc1C1(c2cccc(N3Cc4c(cc(CNC5(C)CCC5)cc4C(F)(F)F)C3=O)c2)CC2(CC(O)C2)C1 (stereo not drawn) [Compound 93, 2-(3-(6-hydroxy-2-(4-methyl-4H-1,2,4-triazol-3-yl)spiro[3.3]heptan-2-yl)phenyl)-6-(((1-methylcyclobutyl)amino)methyl)-4-(trifluoromethyl)isoindolin-1-one]
5.28	3.1x	4.80	CC(=O)N1CC2(C1)CC(c1cccc(N3Cc4c(cc(CNC5(C)CCC5)cc4C(F)(F)F)C3=O)c1)(c1nncn1C)C2 [Compound 97, 2-(3-(2-acetyl-6-(4-methyl-4H-1,2,4-triazol-3-yl)-2-azaspiro[3.3]heptan-6-yl)phenyl)-6-(((1-methylcyclobutyl)amino)methyl)-4-(trifluoromethyl)isoindolin-1-one]
5.89	5.8x	5.12	Cn1cnnc1C1(c2cccc(N3Cc4c(cc(CNC5(C)CCC5)cc4C(F)(F)F)C3=O)c2)CC2(CN(S(C)(=O)=O)C2)C1 [Compound 98, 2-(3-(6-(4-methyl-4H-1,2,4-triazol-3-yl)-2-(methylsulfonyl)-2-azaspiro[3.3]heptan-6-yl)phenyl)-6-(((1-methylcyclobutyl)amino)methyl)-4-(trifluoromethyl)isoindolin-1-one]
7.82	3.7x	7.27	Cn1cnnc1[C@]1(c2cccc(N3Cc4c(cc(CNC5(C)CCC5)cc4C(F)(F)F)C3=O)c2)C[C@](F)(CF)C1 [Compound 105, 2-(3-((1r,3r)-3-fluoro-3-(fluoromethyl)-1-(4-methyl-4H-1,2,4-triazol-3-yl)cyclobutyl)phenyl)-6-(((1-methylcyclobutyl)amino)methyl)-4-(trifluoromethyl)isoindolin-1-one]
